Seven molecules from ChEMBL document CHEMBL1201862, “PubChem BioAssay data set” (2004) can be followed below.

Where “and” joins values, the source holds several entries; their conditions need not be identical. Equal entries are not always repeated.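 Tested at 5 concentrations; 48 h exposure; 96-well plates; endpoints linearly interpolated, else capped at highest concentration. At the GI50, growth is halved.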 Calls of active or inactive are those of the source. Rule as the data show it: active = GI50 up to about 1.1 µM and inactive = higher. A value given as a limit tells only on which side of the number the result lay.

Some test systems named below: A549; COLO 205; HCT-116; HOP-62; HOP-92; HT-29; IGROV-1; MOLT-4; NCI-H23; OVCAR-3; OVCAR-5; RXF 393; SF-268; SF-539; SK-MEL-2; SNB-19; SW-620; TK-10; U-251; UACC-62.
Holding throughout (test): inhibition of tumour cell growth, NCI panel, 48 h

On to `CCNc1nnc(-c2nsc3ccccc23)s1`, for which the GI50 in the assay with A549 was > 100 µM (inactive); in the assay on COLO 205, > 100 µM (inactive); in the assay with HCT-116 it was 24.7 µM (inactive); in the assay with HOP-62 it was 33.7 µM (inactive); in the assay on HOP-92 it was > 100 µM (inactive); in the assay with HT-29, 26.5 µM (inactive). The GI50 with IGROV-1 is > 100 µM (inactive); in the assay on MOLT-4 it was > 100 µM (inactive); in the assay on NCI-H23, 45.5 µM (inactive); with OVCAR-3, 17.8 µM (inactive); with OVCAR-5, > 100 µM (inactive); in the assay on RXF 393, 32.8 µM (inactive). Besides, the GI50 with SF-268 was 23.5 µM (inactive); in the assay with SF-539, 56.2 µM (inactive); in the assay with SK-MEL-2, > 100 µM (inactive); in the assay with SNB-19, 16.3 µM (inactive); in the assay with SW-620 it was > 100 µM (inactive); with TK-10, > 100 µM (inactive). For the same molecule, the GI50 in the assay with U-251 was 31.3 µM (inactive); with UACC-62 it was > 100 µM (inactive).

As for `CN(C)c1ccc(/C=C2\C[C@H]3[C@@H]4CCc5cc(O)ccc5[C@H]4CC[C@]3(C)C2=O)cc1`, the GI50 in the assay with A549 was > 100 µM (inactive); in the assay with COLO 205, 64.7 µM (inactive); in the assay on HOP-62, 30.5 µM (inactive); in the assay on HOP-92 it was 61.5 µM (inactive); with HT-29 it was 38.3 µM (inactive); with IGROV-1, 48 µM (inactive). Besides, the GI50 with MOLT-4 was > 100 µM (inactive); in the assay with NCI-H23, > 100 µM (inactive); in the assay on OVCAR-3, > 100 µM (inactive); in the assay with OVCAR-5, > 100 µM (inactive); with RXF 393, 48.5 µM (inactive); with SF-268, 21.3 µM (inactive). Further, the GI50 was 23.4 µM (inactive) in the assay with SF-539; 35.6 µM (inactive) in the assay on SK-MEL-2; > 100 µM (inactive) with SNB-19; > 100 µM (inactive) with SW-620; > 100 µM (inactive) in the assay on TK-10; 36 µM (inactive) in the assay with U-251. The GI50 in the assay with UACC-62 was 17.1 µM (inactive).

Take `COc1cc2c3cc1Oc1c(OC)c(OC)cc4c1C(Cc1ccc(cc1)Oc1cc(ccc1O)CC3N(C)CC2)N(C)CC4` (stereo unspecified): the GI50 in the assay on A549 was 14.9 µM (inactive) and 8.99 µM (inactive); in the assay on HCT-116 it was 4.6 µM (inactive) and 6.76 µM (inactive); in the assay on HOP-62, 18.1 µM (inactive); in the assay on HOP-92, 16.2 µM (inactive); in the assay on HT-29, 2.78 µM (inactive) and 5.09 µM (inactive); in the assay with IGROV-1, 16.7 µM (inactive) and 11.4 µM (inactive). Also, the GI50 with MOLT-4 is 4.41 µM (inactive) and 5.09 µM (inactive); with NCI-H23, 12.8 µM (inactive) and 17.1 µM (inactive); in the assay with OVCAR-3 it was 13.6 µM (inactive) and 15.8 µM (inactive); with OVCAR-5, 18.5 µM (inactive) and 14.8 µM (inactive); in the assay with RXF 393, 1.29 µM (inactive) and 1.09 µM (active); in the assay with SF-268 it was 14.1 µM (inactive) and 10.8 µM (inactive). Besides, the GI50 is 12.9 µM (inactive) and 8.69 µM (inactive) with SK-MEL-2; 10.3 µM (inactive) and 8.36 µM (inactive) with SW-620; 12.1 µM (inactive) and 22.8 µM (inactive) in the assay with TK-10; 11.2 µM (inactive) and 9.08 µM (inactive) in the assay on U-251; 8.89 µM (inactive) and 15.1 µM (inactive) in the assay with UACC-62.

For `Cc1c2cnccc2c(C)c2c1c1ccccc1n2CCCCCCCl`, the GI50 was > 48.2 µM (inactive) in the assay on A549; 28.2 µM (inactive) in the assay with COLO 205; 23.6 µM (inactive) in the assay with HCT-116; > 50 µM (inactive) in the assay with HOP-62; > 50 µM (inactive) with HOP-92; 29.6 µM (inactive) in the assay on HT-29. The GI50 in the assay on IGROV-1 is > 45.7 µM (inactive); in the assay on MOLT-4, 19.9 µM (inactive); in the assay with NCI-H23, 38.6 µM (inactive); with OVCAR-3, 49.7 µM (inactive); in the assay on OVCAR-5, > 46.2 µM (inactive); in the assay with RXF 393 it was > 50 µM (inactive). Moreover, the GI50 in the assay with SF-268 is > 45 µM (inactive); in the assay on SF-539, > 50 µM (inactive); with SK-MEL-2 it was > 50 µM (inactive); with SNB-19, 40.4 µM (inactive); with SW-620 it was 30 µM (inactive); in the assay on U-251, 35.1 µM (inactive). For the same molecule, in the assay on UACC-62, the GI50 was > 50 µM (inactive).

As for `COc1cccc(NC(=O)CC(=O)NNCC(=O)Nc2nnc(-c3ccc(N(CCC#N)S(=O)(=O)c4ccccc4)cc3)s2)c1`, the GI50 with A549 was 67.5 µM (inactive); in the assay on COLO 205, 53 µM (inactive); in the assay with HCT-116, 63.7 µM (inactive); with HOP-62, 88.7 µM (inactive); with HOP-92, 49.2 µM (inactive); with IGROV-1, 96.4 µM (inactive). The GI50 in the assay with MOLT-4 was 35.7 µM (inactive); in the assay on NCI-H23, 48.3 µM (inactive); with OVCAR-3, 78.3 µM (inactive); in the assay with OVCAR-5, 78.3 µM (inactive); in the assay on RXF 393 it was 56.4 µM (inactive); in the assay on SF-268 it was 82.4 µM (inactive). Moreover, the GI50 with SF-539 was > 100 µM (inactive); in the assay on SK-MEL-2 it was > 100 µM (inactive); with SNB-19, > 100 µM (inactive); with SW-620 it was > 100 µM (inactive); in the assay with TK-10, > 100 µM (inactive); in the assay on U-251 it was 76.9 µM (inactive). Moreover, the GI50 with UACC-62 is 30.7 µM (inactive).

For `COc1ccc(/C(Cl)=C(\C=O)c2ccc(Cl)c(Cl)c2)cc1OC`, the GI50 in the assay with COLO 205 was 16.7 µM (inactive); with HCT-116, 4.18 µM (inactive); in the assay with HOP-62 it was 16.3 µM (inactive); with HOP-92, 2.69 µM (inactive); with HT-29 it was 2.47 µM (inactive); in the assay on IGROV-1, > 10 µM (inactive). Moreover, the GI50 in the assay on MOLT-4 is 2.24 µM (inactive); with NCI-H23 it was 2.9 µM (inactive); in the assay on OVCAR-3, 13.1 µM (inactive); in the assay on SF-268, 3.59 µM (inactive); in the assay with SF-539, 5.89 µM (inactive); in the assay with SK-MEL-2, 1.87 µM (inactive). For the same molecule, the GI50 was 14.9 µM (inactive) with SNB-19; 4.12 µM (inactive) in the assay on SW-620; 19 µM (inactive) in the assay on TK-10; 4.34 µM (inactive) with U-251; 4.63 µM (inactive) in the assay with UACC-62.

On to `CCc1cc(=O)n(/C(C)=C/c2ccccc2)n1C`, for which the GI50 in the assay with A549, in the assay on COLO 205, in the assay on HCT-116, in the assay with HOP-62, in the assay on HOP-92 and in the assay with HT-29 was > 100 µM (inactive) each time. The GI50 in the assay with IGROV-1, in the assay with MOLT-4, in the assay on NCI-H23, with OVCAR-3, in the assay with OVCAR-5 and with RXF 393 was > 100 µM (inactive) each time. Besides, the GI50 with SF-268, in the assay with SF-539, in the assay on SK-MEL-2, in the assay on SNB-19, in the assay with SW-620 and in the assay on TK-10 was > 100 µM (inactive) each time. Besides, the GI50 in the assay with U-251 and in the assay with UACC-62 was > 100 µM (inactive) throughout.
